According to US12077503B2, “Substituted cyclic amides and their use as herbicides” (FMC CORPORATION, priority 2015, dated 2024):

Tests used:
Assay type in all cases: in vivo
[1] = test system: barnyardgrass (Echinochloa crus-galli); test: Test G Pre-Emergence Protocol; conditions: evaluated after 13 days
Method: (§1) Seeds of corn (Zea mays), giant foxtail (Setaria faberi), barnyardgrass (Echinochloa crus-galli), ivy-leaved morning glory (Ipomoea hederacea), redroot pigweed (Amaranthus retroflexus) and velvetleaf (Abutilon theophrasti) were sown in standard soil in pots. After cultivation for one day under controlled conditions in a glasshouse (at 24/16° C., day/night; 14 hours light; 65% humidity), the plants were sprayed with an aqueous spray solution derived from the formulation of the technical active ingredient in acetone/water (50:50) solution containing 0.5% Tween 20 (polyoxyethylene sorbitan monolaurate, CAS RN 9005-64-5) to give a final dose of 15.625, 62.5 or 250 g/ha of test compound.
(§2) The test plants were then grown on under controlled conditions in a glasshouse (at 24/16° C., day/night; 14 hours light; 65% humidity) and watered twice daily. After 13 days the test was evaluated (100=total damage to plant; 0=no damage to plant). A dash (-) means no test result.

[2] = test system: corn (Zea mays); test: Test G Pre-Emergence Protocol; conditions: evaluated after 13 days
Method: as §1, §2

[3] = test system: giant foxtail (Setaria faberi); test: Test G Pre-Emergence Protocol; conditions: evaluated after 13 days
Method: as §1, §2

[4] = test system: ivy-leaved morning glory (Ipomoea hederacea); test: Test G Pre-Emergence Protocol; conditions: evaluated after 13 days
Method: as §1, §2

[5] = test system: redroot pigweed (Amaranthus retroflexus); test: Test G Pre-Emergence Protocol; conditions: evaluated after 13 days
Method: as §1, §2

[6] = test system: velvetleaf (Abutilon theophrasti); test: Test G Pre-Emergence Protocol; conditions: evaluated after 13 days
Method: as §1, §2

[7] = test system: barnyardgrass (Echinochloa crus-galli); test: Test G Post-Emergence Protocol
Method: as §1, with “8 days” for “one day”
as §2

[8] = test system: corn (Zea mays); test: Test G Post-Emergence Protocol; conditions: for Corn damage rating: evaluated after 13 days, 100=total damage to plant, 0=no damage to plant
Method: as §1, with “8 days” for “one day”
as §2

[9] = test system: giant foxtail (Setaria faberi); test: Test G Post-Emergence Protocol
Method: as §1, with “8 days” for “one day”
as §2

[10] = test system: ivy-leaved morning glory (Ipomoea hederacea); test: Test G Post-Emergence Protocol
Method: as §1, with “8 days” for “one day”
as §2

[11] = test system: redroot pigweed (Amaranthus retroflexus); test: Test G Post-Emergence Protocol; conditions: for Pigweed, Redroot damage rating: evaluated after 13 days, 100=total damage to plant, 0=no damage to plant
Method: as §1, with “8 days” for “one day”
as §2

[12] = test system: velvetleaf (Abutilon theophrasti); test: Test G Post-Emergence Protocol; conditions: for Velvetleaf damage rating: evaluated after 13 days, 100=total damage to plant, 0=no damage to plant
Method: as §1, with “8 days” for “one day”
as §2

[13] = 62.5 g ai/ha, 100=total damage to plant, 0=no damage to plant
[14] = 15.625 g ai/ha, evaluated after 13 days (100=total damage to plant; 0=no damage to plant)
[15] = 62.5 g ai/ha, evaluated after 13 days, 100=total damage to plant, 0=no damage to plant
[16] = 250 g ai/ha, evaluated after 13 days, 100=total damage to plant, 0=no damage to plant

CN1C[C@@H](c2ccc(C(F)(F)F)cc2)[C@H](C(=O)Nc2cccnc2F)C1=O (racemic) [Compound 1653]
Barnyardgrass damage rating [1, 13]: 80
Barnyardgrass damage rating (100=total damage to plant; 0=no damage to plant) ([1]; 250 g ai/ha): 80
pest or weed control at 15.625 g/ha ([1]; Echinochloa crus-galli, pre-emergence, 312 h, 15.625 g ai/ha, read-out: Barnyardgrass damage rating (100=total damage to plant; 0=no damage to plant)): 0%
Corn damage rating [2, 13]: 30
Corn damage rating (100=total damage to plant; 0=no damage to plant) ([2]; 250 g ai/ha): 80
plant injury at 15.625 g/ha ([2]; Zea mays, pre-emergence, 312 h, 15.625 g ai/ha, read-out: Corn damage rating (100=total damage to plant; 0=no damage to plant)): 0%
Foxtail, Giant damage rating (100=total damage to plant; 0=no damage to plant) ([3]; 15.625 g ai/ha): 60
Foxtail, Giant damage rating [3, 13]: 90
Foxtail, Giant damage rating (100=total damage to plant; 0=no damage to plant) ([3]; 250 g ai/ha): 90
Morningglory, Ivy-leaved damage rating (100=total damage to plant; 0=no damage to plant) ([4]; 250 g ai/ha): 20
pest or weed control at 15.625 g/ha ([4]; Ipomoea, pre-emergence, 312 h, 15.625 g ai/ha, read-out: Morningglory, Ivy-leaved damage rating (100=total damage to plant; 0=no damage to plant)): 0%
pest or weed control at 62.5 g/ha ([4]; Ipomoea, pre-emergence, 312 h, 62.5 g ai/ha, 100=total damage to plant, 0=no damage to plant, read-out: Morningglory, Ivy-leaved damage rating): 0%
Pigweed, Redroot damage rating [5, 13]: 40
Pigweed, Redroot damage rating (100=total damage to plant; 0=no damage to plant) ([5]; 250 g ai/ha): 80
pest or weed control at 15.625 g/ha ([5]; Amaranthus retroflexus, pre-emergence, 312 h, 15.625 g ai/ha, read-out: Pigweed, Redroot damage rating (100=total damage to plant; 0=no damage to plant)): 0%
Velvetleaf damage rating [6, 13]: 10
Velvetleaf damage rating (100=total damage to plant; 0=no damage to plant) ([6]; 250 g ai/ha): 50
pest or weed control at 15.625 g/ha ([6]; Abutilon theophrasti, pre-emergence, 312 h, 15.625 g ai/ha, read-out: Velvetleaf damage rating (100=total damage to plant; 0=no damage to plant)): 0%
Barnyardgrass damage rating [7, 14]: 30
Barnyardgrass damage rating [7, 15]: 60
Barnyardgrass damage rating [7, 16]: 80
Corn damage rating ([8]; 62.5 g ai/ha): 30
Corn damage rating ([8]; 250 g ai/ha): 70
plant injury at 15.625 g/ha ([8]; Zea mays, post-emergence, 312 h, 15.625 g ai/ha, evaluated after 13 days (100=total damage to plant; 0=no damage to plant), read-out: Corn damage rating): 0%
Foxtail, Giant damage rating [9, 14]: 60
Foxtail, Giant damage rating [9, 15]: 80
Foxtail, Giant damage rating [9, 16]: 80
Morningglory, Ivy-leaved damage rating [10, 14]: 10
Morningglory, Ivy-leaved damage rating [10, 15]: 30
Morningglory, Ivy-leaved damage rating [10, 16]: 40
Pigweed, Redroot damage rating ([11]; 62.5 g ai/ha): 70
Pigweed, Redroot damage rating ([11]; 250 g ai/ha): 80
pest or weed control at 15.625 g/ha ([11]; Amaranthus retroflexus, post-emergence, 312 h, 15.625 g ai/ha, evaluated after 13 days (100=total damage to plant; 0=no damage to plant), read-out: Pigweed, Redroot damage rating): 0%
Velvetleaf damage rating ([12]; 62.5 g ai/ha): 40
Velvetleaf damage rating ([12]; 250 g ai/ha): 50
pest or weed control at 15.625 g/ha ([12]; Abutilon theophrasti, post-emergence, 312 h, 15.625 g ai/ha, evaluated after 13 days (100=total damage to plant; 0=no damage to plant), read-out: Velvetleaf damage rating): 0%
